Laboratory results taken from patent US6903098B1, “Use of phthalazine derivatives” (Abbott GmbH & Co., priority 1999, dated 2005).

System: PARP 1
Test: HTRF assay for PARP 1 inhibitory effect
Assay type: biochemical, human or bovine
Conditions: at 10 μM
Excerpt: In the HTRF PARP assay according to the invention, histones, as target proteins for modification by PARP, are labeled indirectly with an XL665 fluorophore. The antibody is labeled directly with a europium cryptate. If the XL665 fluorophore is in the direct vicinity in space, which is ensured by binding to the poly(ADP-ribose) on the histone, then an energy transfer is possible. The emission at 665 nm is thus directly proportional to the amount of bound antibody, which in turn is equivalent to the amount of poly(ADP-ribose). The measured signal thus corresponds to the PARP activity. The principle of measurement is depicted diagrammatically in FIG. 7. The materials used are identical to those used in the ELISA (see above) unless expressly stated.
Histones were dissolved in a concentration of 3 mg/ml in Hepes buffer (50 mM, pH=7.5). Biotinylation took place with sulfo-NHS-LC-biotin (Pierce, #21335T). A molar ratio of 4 biotin per histone was used. The incubation time was 90 minutes (RT). The biotinylated histones were then purified on a G25 SF HR10/10 column (Pharmacia, 17-0591-01) in Hepes buffer (50 mM, pH=7.0) in order to remove excess biotinylation reagent. […]
Measurement was then possible after 30 minutes (up to 4 hours). […] The Ki values were calculated as described for the ELISA. […]

## O=c1[nH]nc(CN2CCN(c3ccccc3)CC2)c2ccccc12 [4-(4-phenylpiperazin-1-yl)methyl-2H-phthalazin-1-one]
  inhibition of PARP 1: 38%
